From patent publication US9909086B2, “Green glycine betaine derivative compounds and compositions containing same” (priority 2012, dated 2018) come the findings set out here.

The nature of one series: Surface tension. The series is classed as physicochemical. The note with it: pure. The text has this: Surface properties of betainyl amino alkyl(ene) methane sulfonates and alkyl(ene) betainate methane sulfonate surfactants are set forth below in Table 5. […] Comparative examples are provided by the GLUCOPON surfactants (commercially available from BASF, formerly known as Cognis) which are alkyl polyglucosides having a carbon length as indicated.

A further series can be described thus: Foamability. It counts as physicochemical. To be noted: concentration at CMC, flow rate 14 l/min. The text has this: The surfactants of the invention also have foaming ability. This foaming ability is able to be effectively manipulated, i.e., foaming density increased, based on hydrocarbon chain length.
Series [1] is described as follows: Interfacial tension, emulsifying sunflower oil in water. It counts as physicochemical. The note with it: purified.
A short description of series [2]: Wetting properties, contact angles on treated substrates. It counts as physicochemical.
Series [3] can be described thus: Viscosity (thickening and gelling). It counts as physicochemical. To be noted: aqueous solution. An excerpt:
Table 15 below illustrates the thickening of GB stearic amine aqueous solution as a function of concentration and time.
The examples of Table 15 are compounds present in water alone and, thus, the viscosity continues to change. After a certain point, the viscosity will plateau and not change anymore. If the surfactant is provided at a predetermined concentration, the desired viscosity will be reached right away and not continue to increase due to the stability provided. Thus, generally, as the surfactant concentration increases, so does the initial viscosity. Also over a period of time, the viscosity increases. The viscosity can be controlled to terminate the viscosity increase, i.e., achieve a pre-determined viscosity, by adding salts to the composition. Preferred salts are sodium chloride, potassium chloride, magnesium, chloride, and lithium chloride. Another feature of the invention is the ability to combine GB surfactants with natural polysaccharides to form gel and pseudoplastic viscous liquids or gels. Examples of polysaccharides are agar, carregenan, natural gum, pectin, gelatin, starch, cellulose derivatives, cellulose derived from wood pulp fiber, lignin, etc. […]

For series [4] the following is noted: aqueous solution; 20 seconds contact time; pure.
The mark [5] stands for this setting: surfactant concentration 1 % w/w.
[6] abbreviates: surfactant concentration 2 % w/w.
[7] abbreviates: surfactant concentration 3 % w/w.
The mark [8] stands for this setting: surfactant concentration 4 % w/w.
Where [9] appears, read: surfactant concentration 5 % w/w.
[10] abbreviates: surfactant concentration 6 % w/w.

Take `CCCCCCCCCCCCNC(=O)C[N+](C)(C)C.CS(=O)(=O)[O-]` [GB Lauric amide, Betainyl amino dodecane methane sulfonate]: in the series “Surface tension”, the “Surface Tension @ CMC” value was found to be 38 mN/m.

On to `CCCCCCCCCCCCCCNC(=O)C[N+](C)(C)C.CS(=O)(=O)[O-]` [GB Myristic amide, Betainyl amino tetradecane methane sulfonate], for which the “Surface Tension @ CMC” value in the series “Surface tension” was found to be 38 mN/m.

Take `CCCCCCCC/C=C\CCCCCCCCNC(=O)C[N+](C)(C)C.CS(=O)(=O)[O-]` [GB Oleic amide C18:1) pure, (Z)-betainyl amino octadec-9-ene methane sulfonate, pure]: in the series “Foamability”, the Foam density was found to be 18 g/L and the “Time t: the time to fill 2 liters” value came to 85 s.

On to `CCCCCCCC/C=C\CCCCCCCCNC(=O)C[N+](C)(C)C.CS(=O)(=O)[O-]` [GB Oleic amide, (Z)-betainyl amino octadec-9-ene methane sulfonate], for which the IFT in series [1] is 5.5 mN/m. Further, the “Surface Tension @ CMC” value in “Surface tension” was found to be 36 mN/m. Moreover, in series [2] (surfactant conc. 1 % (w/w)), the “Contact angle on treated substrate, Enamel Tiles” value (“Contact angle … Enamel Tiles” for short) amounted to 27.6 °; the “Contact angle on treated substrate, Glass” value (“Contact angle … Glass” for short) is listed as 22.6 °; the “Contact angle on treated substrate, Kitchen Soil” value (from here on “Contact angle … Kitchen Soil”) came out at 46.4 °; the “Contact angle on treated substrate, Soap Scum” value (“Contact angle … Soap Scum” for short) is 31.1 °. Besides, in series [2] (surfactant conc. 3 % (w/w)), the “Contact angle … Enamel Tiles” value is on record as 26.8 °; the “Contact angle … Glass” value was 18.8 °; the “Contact angle … Kitchen Soil” value came to 38.1 °; the “Contact angle … Soap Scum” value came out at 31.3 °.

Take `CCCCCCCCCCCCCCCCNC(=O)C[N+](C)(C)C.CS(=O)(=O)[O-]` [GB Palmitic amide, Betainyl amino hexadecane methane sulfonate]: the “Surface Tension @ CMC” value in the series “Surface tension” worked out at 37 mN/m.

For `CCCCCCCCCCCCCCCCCCNC(=O)C[N+](C)(C)C.CS(=O)(=O)[O-]` [GB Stearic amide, Betainyl amino octadecane methane sulfonate], the “Initial Viscosity” value in series [3] (setting [5]) is recorded as 120 cP; in series [3] (setting [6]) it was 160 cP; in series [3] (setting [7]), 160 cP; in series [3] (setting [8]), 2259 cP; in series [3] (setting [9]) it was 3039 cP; in series [3] (setting [10]), 5279 cP. The “Viscosity after 15 days” value was determined as 160 cP in series [3] (setting [5]); 639 cP in series [3] (setting [6]); 807 cP in series [3] (setting [7]); 3626 cP in series [3] (setting [8]); 6079 cP in series [3] (setting [9]); 8851 cP in series [3] (setting [10]). The molecule also returned an IFT in series [1] of 5.2 mN/m. Moreover, the “Surface Tension @ CMC” value in “Surface tension” worked out at 39 mN/m. The “Bathroom Soap Scum Solubilized” value in series [4] was found to be 35%. Besides, the “Contact angle … Enamel Tiles” value in series [2] (surfactant conc. 1 % (w/w)) came out at 35.4 °; in series [2] (surfactant conc. 3 % (w/w)) it was 27.1 °. Besides, the “Contact angle … Glass” value was found to be 23.1 ° in series [2] (surfactant conc. 1 % (w/w)) and 19.4 ° in series [2] (surfactant conc. 3 % (w/w)). For the same molecule, the “Contact angle … Kitchen Soil” value in series [2] (surfactant conc. 1 % (w/w)) was 39.7 °; in series [2] (surfactant conc. 3 % (w/w)), 34.6 °. Also, the “Contact angle … Soap Scum” value in series [2] (surfactant conc. 1 % (w/w)) was determined as 31.6 °; in series [2] (surfactant conc. 3 % (w/w)), 34.3 °.
